Data taken from patent US7316814B2, “Cosmetic composition comprising a silicone-containing compound and a fatty acid ester” (L'Oreal, priority 1995, dated 2008).

test: Maximum mass content of ester added to a gum-in-silicone-oil solution without precipitation of the gum; format: physicochemical; conditions: 25° C.; 13% gum solution in polydimethylsiloxane (Q2-1403)
Protocol: The maximum mass content of ester which may be added, at 25° C., to a solution of gum in a silicone oil without observing precipitation of the gum was measured.

Compound | Maximum mass content of ester which may be added without observing precipitation of the gum
Octyldodecyl neopentanoate | to at least 1000%
CCCCCCCCC(CCCCCC)COC(=O)CCCCCC(C)C (stereo not shown) [2-hexyldecyl isononanoate] | 72%
CC(C)CCCCCCCCCCCCCCCOC(=O)CCCCCC(C)C [Isostearyl isononanoate] | 60%
CC(C)CCCCCCCCCCCCCCCOC(=O)C(C)(C)C [Isostearyl neopentanoate] | 68%
